Experimental data from PubChem BioAssay (NCI).
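48-hour exposure; five concentrations; linearly interpolated endpoints. The concentration for full growth arrest is given as TGI.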

Columns and labels:
Test in all cases: NCI tumour cell line growth inhibition, 48 h
A498 renal = system: A498 renal
A549 NSCLC = system: A549 NSCLC
CAKI-1 renal = system: CAKI-1 renal
DLD-1 colon = system: DLD-1 colon
DMS 273 small cell lung = system: DMS 273 small cell lung
HOP-18 NSCLC = system: HOP-18 NSCLC
M19-MEL melanoma = system: M19-MEL melanoma
NCI-H23 lung = system: NCI-H23 lung
SNB-78 CNS = system: SNB-78 CNS
SW-620 colon = system: SW-620 colon
XF 498 CNS = system: XF 498 CNS
ACHN renal = system: ACHN renal
DMS 114 small cell lung = system: DMS 114 small cell lung

Compound	TGI (A498 renal) [µM]	TGI (A549 NSCLC) [µM]	TGI (CAKI-1 renal) [µM]	TGI (DLD-1 colon) [µM]	TGI (DMS 273 small cell lung) [µM]	TGI (HOP-18 NSCLC) [µM]	TGI (M19-MEL melanoma) [µM]	TGI (NCI-H23 lung) [µM]	TGI (SNB-78 CNS) [µM]	TGI (SW-620 colon) [µM]	TGI (XF 498 CNS) [µM]	TGI (ACHN renal) [µM]	TGI (DMS 114 small cell lung) [µM]
O=P(NCCCO)(OCc1ccccc1)N(CCCl)CCCl (stereo unspecified)	> 100	> 100	> 100	> 31.6	> 100	> 100	> 100	> 100	> 100	> 100	> 100		
COC(=O)c1c(O)ccc2c1c1cc3ccccc3c(O)c1n2CCc1ccc(OC)c(OC)c1	> 100	> 100	> 100					> 100				> 100	
COc1cccc(C23CCN(C)C(CC(O)C2)C3)c1OC (stereo unspecified)	> 100	> 100	> 100					> 100		> 100		> 100	
O=C(Cc1nc2ccccc2[nH]c1=O)c1c[nH]c2ccccc12	51.9	> 100	63.4					> 100		> 100		22.3	
Nc1nc(SCC(=O)c2ccc(Br)cc2)c2[nH]cnc2n1	> 100	> 100	> 100					> 100		> 100		> 100	
C/C(C=O)=C/[C@@]1(C)O[C@@H](C)[C@@](C)(O)[C@@H]1O	> 100	> 100	37.1					> 100		> 100		44.4	
C#C[C@]1(O)CC[C@H]2[C@@H]3CCc4cc(O)ccc4[C@H]3CC[C@@]21C	77.4	> 100	> 100	60.7		> 100	57.2	69.4	> 100	> 100	98	> 100	> 100
O=C(Nc1ccccc1)Oc1ccc(C(=S)Nc2ccc(Br)cc2)cc1	54.5		41					37.2		> 100		97.9	
CCCCCCCCCCCCCCCc1nc(=S)[nH][nH]1	> 100						> 100	> 100	> 100		> 100	> 100	> 100
CCOc1nc2c(N3CCCC3)nc(N3CCNCC3)nc2nc1NCc1ccccc1		4.26	6.71					3.45		3.49		4.55	
CC1=NN(c2nc(N)nc(/C(C#N)=C\c3ccc(-c4ccc([N+](=O)[O-])cc4)o3)n2)C(C)(C)C1	> 100	> 100	> 100					> 100		> 100		> 100	
COc1ccccc1-c1c(C#N)c(N)[nH]c(=S)c1C#N	> 100	> 100	> 100					> 100		> 100		> 100	
Cc1ccc(-c2cc(-c3ccc(Cl)cc3)nc(/N=C3\C(=O)N(CN(C)C)c4ccccc43)n2)cc1	> 100	> 100	> 100					> 100		> 100		> 100	
Oc1ccccc1C=Nc1ccc(-c2nc3ccccc3s2)cc1	52.4	> 100	> 100					> 100		> 100		73	
COC(=O)/C=C\C(C#N)(C#N)N=Cc1ccc(OC)cc1	33	38.3	4.48					28.3		14.6		8.64	
CC(C)CC(N)C(=O)NC(C(=O)NC(CCCNC(=N)N)C(=O)NC(CS)C(=O)NC1CSCC(C(=O)NC(Cc2ccccc2)C(=O)NC(C(=O)NC(CCCNC(=N)N)C(=O)O)C(C)C)NC(=O)C2CCCN2C(=O)C(CCCCN)NC(=O)C2CCCN2C(=O)C2CCCN2C(=O)C(Cc2ccc(O)cc2)NC(=O)C(CO)NC(=O)C(CCCCN)NC(=O)C(C(C)O)NC(=O)C(Cc2c[nH]c3ccccc23)NC1=O)C(C)C (stereo unspecified)	> 25	> 25	> 25					> 25		> 25		> 25	
Cc1c(-c2ccccc2)[nH]c2cn[nH]c(=O)c12	> 100	> 100	> 100					> 100		> 100		> 100	
